Measurements: article PMC6017909, “Synthesis and Evaluation of the Tumor Cell Growth Inhibitory Potential of New Putative HSP90 Inhibitors” (Molecules : A Journal of Synthetic Chemistry and Natural …, 2018)
One block for each molecule: values may come before it.

Assays:
[1] = test system: A431; assay: Cell-counting assay, 72-h drug exposure; format: cell-based; details: Homo sapiens, A-431, read-out: Cell Growth Inhibitory Activity A431 IC50 72 h
From the text: (§1) For the cytotoxic activity studies and determination of GI50 concentrations in three different tumor cell lines, the cell culture conditions are described in Section 3.5. For the studies on the effect on % viable cells, cell cycle, cellular proliferation, and apoptosis, culture conditions are described in Section 3.6.1. For the remaining studies, the epithelial carcinoma cell line A431 and the non-small cell lung carcinoma cell line NCI-H460 were routinely grown in RPMI 1640 (Lonza, Vierviers, Belgium), supplemented with 10% (v/v) heat-inactivated fetal bovine serum (FBS, GIBCO, Invitrogen, Paisley, UK). The human peritoneal mesothelioma cell line STO was kindly provided by Dr. N. Zaffaroni (IRCCS Istituto Nazionale Tumori, Milan, Italy) and grown in 50/50 DMEM-Ham’s F12 medium (Lonza, Vierviers, Belgium), supplemented with 10% (v/v) heat-inactivated foetal bovine serum and 2 mM L-glutamine (L-Gln). All cell lines were maintained at 37 °C in a 5%/95% CO2/air atmosphere. All the compounds tested were freshly prepared by dissolving powder in dimethylsulfoxide (DMSO) (BDH Prolabo, Milan, Italy) and following dilution in culture medium. Cells were incubated with drugs for 48 h or 72 h (unless otherwise stated) at 37 °C in culture medium supplemented with 10% (v/v) heat-inactivated FBS; drug concentrations used for each assay and duration of treatments are reported in Legends to Figures.
(§2) Cellular sensitivity to drugs was evaluated by a cell-counting assay after 72-h drug exposure. Cells in the logarithmic phase of growth were seeded in duplicate into 6-well plates. Twenty-four hours after seeding, the drug was added to the medium. Cells were harvested 72 h after drug exposure and counted with a cell counter.

[2] = test system: STO; assay: Cell-counting assay, 72-h drug exposure; format: cell-based; details: Homo sapiens, read-out: Cell Growth Inhibitory Activity STO IC50 72 h
From the text: as §1, §2

[3] = test system: AGS; assay: Sulforhodamine B (SRB) cell growth inhibition assay; format: cell-based; details: Homo sapiens, 48 h treatment
Method: (§3) The following human tumor cell lines were used and maintained in RPMI-1640 medium with UltraGlutamine I and 25 mM Hepes (Lonza, Basel, Switzerland), supplemented with 5% FBS (Biowest): NCI-H460 (non-small cell lung adenocarcinoma), AGS (gastric adenocarcinoma) and MCF-7 (breast adenocarcinoma). The HFF-1 cell line (human foreskin fibroblasts) was cultured in DMEM High Glucose with L-Glutamine supplemented with 15% FBS. All cell lines were routinely maintained at 37 °C in a humidified incubator with 5% CO2. Cell number and viability were determined with the trypan blue exclusion assay. All the experiments were performed with exponentially growing cells presenting more than 90% cell viability.
(§4) The growth inhibitory effect of the compounds was assessed using the Sulforhodamine B (SRB) assay as previously described. Briefly, cells were plated into 96-well plates (5000 cells/well for MCF-7 and NCI-H460 cells and 7500 cells/well for AGS cells) and incubated for 24 h to adhere. Serial dilutions of the different compounds (ranging from 0 to 150 μM or from 0 to 50 μM) were then added to the cells. Cells were further incubated for 48 h. Following this period (or at the time the compound is added, T0), plates were fixed with 10% ice-cold trichloroacetic acid. Following staining with 0.4% SRB, plates were washed with 1% acetic acid and the bound dye solubilized with 10 mM Tris-Base. […] For the HFF-1 cell line, cells (15,000 cells/well) were plated into 96-well plates, allowed to adhere for 24 h and treated with the GI50 concentration of each compound for seven days. After this period, the SRB assay was carried out as described above. The effect of the maximum concentration of vehicle (solvent) of the compounds (H2O: 0.31% for compound 8 and 0.19% for compound 13) was also analyzed in each assay.

[4] = test system: MCF7; assay: as above; format: cell-based; details: Homo sapiens, 48 h treatment
Method: as §3, §4

[5] = test system: NCI-H460; assay: as above; format: cell-based; details: Homo sapiens, 48 h treatment
Method: as §3, §4

[6] = Viable cell number, trypan blue exclusion assay; format: cell-based; details: human, NCI-H460 cells, read-out: Number of viable cells (in relation to Blank cells)
Method: NCI-H460 cells were plated in 6-well plates (1 × 10^5 cells/well) in RPMI-1640 medium with UltraGlutamine I and 25 mM Hepes (Lonza) supplemented with 10% FBS (PAA) at 37 °C in a humidified incubator with 5% CO2 for 24 h. […] These concentrations corresponded respectively to 5.2 μM and 7.8 μM for compound 5 and to 3.2 μM and 4.8 μM for compound 8. Cells were also incubated with medium only (Blank) or with the vehicle (solvent, H2O), corresponding to the highest concentration used when testing the compounds. Following treatment with the compounds, cells were further processed as follows.
Cell number and % viable cells was determined with the Trypan blue exclusion assay.

[7] = test system: NCI-H460; assay: Apoptosis, Annexin V-FITC/PI flow cytometry; format: cell-based, human; details: for % Apoptosis: 48 h, sum of early and late apoptosis; for Induction of apoptosis at cytotoxic concentrations: GI50 and 1.5× GI50, 48 h, Annexin V and propidium iodide
Method: NCI-H460 cells were plated in 6-well plates (1 × 10^5 cells/well) in RPMI-1640 medium with UltraGlutamine I and 25 mM Hepes (Lonza) supplemented with 10% FBS (PAA) at 37 °C in a humidified incubator with 5% CO2 for 24 h. […] These concentrations corresponded respectively to 5.2 μM and 7.8 μM for compound 5 and to 3.2 μM and 4.8 μM for compound 8. Cells were also incubated with medium only (Blank) or with the vehicle (solvent, H2O), corresponding to the highest concentration used when testing the compounds. Following treatment with the compounds, cells were further processed as follows. Following 48 h treatment, the levels of apoptosis were assessed using the “Human AnnexinV-FITC/PI apoptosis” kit (Bender MedSystems, Wien, Austria) as previously described. Briefly, cell pellets were resuspended in binding buffer and further incubated with Annexin V-FITC and with propidium iodide. Samples were analyzed in a FACSCalibur flow cytometer (BD Biosciences, Erembodegem, Belgium), plotting at least 15,000 events and using the FlowJo 7.6.5 software (Tree Star, Inc., Ashland, OR, USA).

[8] = test system: HSP90 client proteins in A431 cells; assay: HSP90 client protein levels by Western blot; format: cell-based, human; details: 24 h
From the text: as §1
(§5) Total cell lysates were prepared as described previously. Primary antibodies used in this study are: anti-Raf-1 and anti-CDK4 (Santa Cruz Biotechnology Inc., Santa Cruz, CA, USA), anti-Survivin (Abcam, Cambridge, UK), anti-Akt (Transduction Laboratories, Lexington, KY, USA), and anti-Actin Sigma Chemical Co., St. Louis, MO, USA).

[9] = test system: HSP90 client proteins in STO cells; assay: HSP90 client protein levels by Western blot; format: cell-based, human; details: 24 h
From the text: as §1, §5

SMILES: O=c1c2ccccc2oc2c[n+](Cc3ccccc3)ccc12.[Br-] [Compound 5, 2-Benzyl-10-oxo-10H-9-oxa-2-azonia-anthracene bromide]
IC50 [1]: 1.36 ± 0.05 µM
IC50 [2]: 2.7 ± 0.8 µM
GI50 [3]: 6.9 ± 1.2 µM
GI50 [4]: 5.4 ± 0.6 µM
GI50 [5]: 5.2 ± 1.2 µM
viability at 48 h, 5.2 µM ([6]; 5.2 μM (GI50)): 71%
viability at 48 h, 7.8 µM ([6]; 7.8 μM (1.5× GI50)): 49%
% Apoptosis ([7]; 5.2 μM, Blank 7.0 ± 0.6): 7.2 ± 1.4%
% Apoptosis ([7]; 7.8 μM, Blank 7.0 ± 0.6): 7.3 ± 0.9%
Induction of apoptosis at cytotoxic concentrations [7]: did not induce apoptosis
CDK4 protein level ([8]; 5.4 μM): almost complete downregulation
Survivin protein level ([8]; 5.4 μM): partial downregulation
CDK4 protein level ([9]; 2.7 μM): almost complete downregulation
Survivin protein level ([9]; 2.7 μM): partial downregulation

IC50 [1]: 0.26 ± 0.4 µM
GI50 [3]: 3.1 ± 0.3 µM
GI50 [4]: 3.2 ± 0.1 µM
GI50 [5]: 3.2 ± 0.1 µM
SMILES: O=c1c2ccccc2sc2c[n+](Cc3ccccc3)ccc12.[Br-] [Compound 8, 2-Benzyl-5-oxo-5H-thiochromeno[2,3-c]pyridin-2-ium bromide]
IC50 [2]: 0.26 ± 0.08 µM
viability at 48 h, 3.2 µM ([6]; 3.2 μM (GI50)): 57%
viability at 48 h, 4.8 µM ([6]; 4.8 μM (1.5× GI50)): 29%
% Apoptosis ([7]; 3.2 μM, Blank 5.2 ± 0.9): 6.7 ± 1.4%
% Apoptosis ([7]; 4.8 μM, Blank 5.2 ± 0.9): 12.5 ± 1.7 %
Induction of apoptosis at cytotoxic concentrations [7]: induced apoptosis
Akt protein level ([8]; 2.6 μM): partial downregulation
EGFR protein level ([8]; 2.6 μM): partial downregulation
RAF protein level ([8]; 2.6 μM): strong downregulation
Survivin protein level ([8]; 2.6 μM, compared with STO cells): less marked
Survivin protein level ([9]; 2.6 μM): caused degradation
